Target: jack bean urease (Canavalia ensiformis, UniProt P07374)
Assay: Urease inhibition in solution (modified Bremner procedure, purified jack bean urease in aqueous solution)
Type: biochemical
Details: commercial purified jack bean urease
Experimental: Efficacy tests were conducted with jack bean urease. The procedure of Bremner (See. L. A. Douglas, J. M. Bremner, Soil Biology Biochem., 3, 859-859 (1970), and references cited therein was modified by replacing the soil as the source of urease with commercial purified jack bean urease. The incubation then proceeds in aqueous solution. The results are set forth in the following Table I.

Chain of jack bean urease (P07374 whole entry, looked up): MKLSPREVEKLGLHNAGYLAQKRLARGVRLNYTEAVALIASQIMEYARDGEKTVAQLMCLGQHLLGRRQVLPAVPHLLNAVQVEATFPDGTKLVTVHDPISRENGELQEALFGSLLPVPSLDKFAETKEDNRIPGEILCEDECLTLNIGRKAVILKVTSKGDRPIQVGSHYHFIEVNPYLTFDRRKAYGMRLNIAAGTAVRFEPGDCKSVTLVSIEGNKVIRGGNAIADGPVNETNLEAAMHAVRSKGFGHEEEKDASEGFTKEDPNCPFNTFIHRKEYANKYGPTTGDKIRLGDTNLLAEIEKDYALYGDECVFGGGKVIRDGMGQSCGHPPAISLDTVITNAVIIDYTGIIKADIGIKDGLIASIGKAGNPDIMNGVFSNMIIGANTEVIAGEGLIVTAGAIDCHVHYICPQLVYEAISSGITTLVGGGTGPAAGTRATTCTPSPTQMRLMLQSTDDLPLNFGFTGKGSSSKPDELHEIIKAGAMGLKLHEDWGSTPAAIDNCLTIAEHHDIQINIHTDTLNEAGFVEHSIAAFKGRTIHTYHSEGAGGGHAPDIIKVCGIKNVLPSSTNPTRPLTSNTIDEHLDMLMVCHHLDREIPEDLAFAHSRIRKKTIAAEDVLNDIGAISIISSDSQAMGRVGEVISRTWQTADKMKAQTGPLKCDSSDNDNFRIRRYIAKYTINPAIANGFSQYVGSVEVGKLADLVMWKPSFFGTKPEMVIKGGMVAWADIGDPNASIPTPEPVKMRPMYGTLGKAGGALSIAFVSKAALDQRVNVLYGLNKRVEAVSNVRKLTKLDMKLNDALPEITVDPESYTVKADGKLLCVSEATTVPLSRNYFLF

Question: `NP(N)(=O)NC(=O)c1ccc(N2C(=O)C=CC2=O)cc1` [N-(diaminophosphinyl)-4-(1'-maleimido)benzamide] was tested. Which inhibition at 1 µM (compound at 10^-6 M, read-out: % Inhibition at Specific Concentration 10^-6 M) did it give?
Answer: Its inhibition at 1 µM is 59%.

Question: And the inhibition at 0.1 µM (compound at 10^-7 M, read-out: % Inhibition at Specific Concentration 10^-7 M)?
Answer: Its inhibition at 0.1 µM is 8%.

Reference: US4528020A, “Urease inhibited urea based fertilizer compositions” (Allied Corporation, priority 1983, dated 1985)
